US20080132484A1, “Method for Identifying Inhibitors Using a Homology Model of Polo-Like Kinase 1” (CYCLACEL LIMITED, priority 2003, published 2008)
“Also recorded” adds a separate entry of the source. Like-named read-outs stand apart in the source and are kept apart here. One block for each compound: values may come before it.

Tests used:
PLK1 [1] = target: T1, PLK1 (Homo sapiens, UniProt P53350); assay: PLK1 kinase assay (CDC25C phosphorylation, [γ-32P]-ATP); format: biochemical; conditions: for inhibition of PLK1 function: at concentrations up to 0.2 mM; for inhibition of PLK1: even at concentrations as high as 1 mM
T1 construct: The PLK1 ORF was cloned into pSSP1 such that the resulting PLK1 translation product would have a 19 amino acid N-terminal tag; made in house; host or cells: Sf9 insect cells (baculovirus)
Description: PLK1 kinase activity was assayed using human CDC25C phosphatase as a substrate. The assays were carried out using 96-well microtitre plates by incubating CDC25C (2 μg/well) with 1 μg/well of purified human recombinant PLK1 and varying concentrations of the candidate compound in a total volume of […] of 20 mM Tris/HCl buffer pH 7.5, supplemented with 25 mM β-glycerophosphate, 5 mM EGTA, 1 mM DTT, and 1 mM NaVO3. Reaction was initiated by the addition of 100 μM ATP and 0.5 μCi of [γ-^32P]-ATP. The reaction mixture was incubated at 30° C. for 1 h, then stopped with 75 mM aq orthophosphoric acid, transferred onto a 96-well P81 filter plate (Whatman), dried, and the extent of CDC25C phosphorylation was assessed by scintillation counting using a Packard TopCount plate reader.
Adenosine, N-ethyhnaleimide, iodoacetamide, and thimerosal were obtained from Sigma Chemical Co. 2′-Thioadenosine was obtained from Calbiochem. […] All compounds were made up as 10 mM stocks in neat dimethylsulfoxide and fresh dilutions to the desired concentrations were made in assay buffer prior to the assay. The candidate compounds were incubated with the enzyme in the kinase assay buffer for the duration of the assay, usually 1 hour at 30° C. […] For each compound duplicate samples, one of which contained dithiothreitol (DTT) at 1 mM final concentration, were assayed.

Human recombinant CKII = target: T2, Human recombinant CKII (Homo sapiens, UniProt P68400); assay: Casein Kinase II (CKII) assay; format: biochemical; conditions: at concentrations up to 0.2 mM
T2 construct: purchased New England Biolabs
Description: Reaction was initiated by the addition of 100 μM ATP and 0.25 μCi of [γ-^32P]-ATP. The reaction mixture was incubated at 30° C. for 15 minutes, then stopped with 75 mM aq orthophosphoric acid, transferred onto a 96-well P81 filter plate (Whatman), dried, and the extent of peptide phosphorylation was assessed by scintillation counting using a Packard TopCount plate reader.

PLK1 [2] = target: T1, PLK1; assay: Kinetic analysis of PLK1 inhibition (ATP dependence); format: biochemical
PKA = PKA (Homo sapiens, UniProt P17612); conditions: Table 14, published values; cited from earlier work
CDK2 = CDK2 (Homo sapiens, UniProt P24941); assay: CDK2 inhibition; format: biochemical; conditions: Table 12
[3] = in the absence of dithiothreitol, read-out: IC50 (μM) − DTT
[4] = in the presence of dithiothreitol (1 mM), read-out: IC50 (μM) + DTT
[5] = Table 14, read-out: Plk1 (IC50)
[6] = read-out: IC50 with respect to PLK1
[7] = Kinase inhibition, flavonoid compounds, read-out: Plk1 IC50

T1 sequence (P53350 whole entry): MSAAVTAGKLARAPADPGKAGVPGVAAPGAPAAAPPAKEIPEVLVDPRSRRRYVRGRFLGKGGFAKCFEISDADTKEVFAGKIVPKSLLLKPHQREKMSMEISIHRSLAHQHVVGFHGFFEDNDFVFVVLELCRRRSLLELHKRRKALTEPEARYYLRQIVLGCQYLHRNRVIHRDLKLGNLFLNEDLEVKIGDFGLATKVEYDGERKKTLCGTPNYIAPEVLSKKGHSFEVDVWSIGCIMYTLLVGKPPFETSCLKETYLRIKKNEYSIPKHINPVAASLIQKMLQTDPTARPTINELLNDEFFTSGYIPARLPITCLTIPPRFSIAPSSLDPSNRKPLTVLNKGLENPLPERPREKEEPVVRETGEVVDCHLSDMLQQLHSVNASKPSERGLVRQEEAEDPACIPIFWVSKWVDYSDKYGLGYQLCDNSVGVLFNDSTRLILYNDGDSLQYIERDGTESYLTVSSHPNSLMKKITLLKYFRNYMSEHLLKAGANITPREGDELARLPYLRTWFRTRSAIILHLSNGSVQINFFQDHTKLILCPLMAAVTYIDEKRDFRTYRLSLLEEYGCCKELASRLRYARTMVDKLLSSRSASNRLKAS
T2 sequence (P68400 whole entry): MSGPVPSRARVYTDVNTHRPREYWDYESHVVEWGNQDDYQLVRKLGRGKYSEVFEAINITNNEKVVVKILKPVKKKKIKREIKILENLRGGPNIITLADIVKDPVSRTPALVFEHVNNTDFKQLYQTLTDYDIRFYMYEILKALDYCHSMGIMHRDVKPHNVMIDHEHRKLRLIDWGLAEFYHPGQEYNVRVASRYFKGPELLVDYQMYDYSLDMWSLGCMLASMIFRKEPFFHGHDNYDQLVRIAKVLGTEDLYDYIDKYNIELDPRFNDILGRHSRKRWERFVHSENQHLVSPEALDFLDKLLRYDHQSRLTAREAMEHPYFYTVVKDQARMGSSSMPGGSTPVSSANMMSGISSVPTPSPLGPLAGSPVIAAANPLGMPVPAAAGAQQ
T2 sequence (P67870 whole entry partner): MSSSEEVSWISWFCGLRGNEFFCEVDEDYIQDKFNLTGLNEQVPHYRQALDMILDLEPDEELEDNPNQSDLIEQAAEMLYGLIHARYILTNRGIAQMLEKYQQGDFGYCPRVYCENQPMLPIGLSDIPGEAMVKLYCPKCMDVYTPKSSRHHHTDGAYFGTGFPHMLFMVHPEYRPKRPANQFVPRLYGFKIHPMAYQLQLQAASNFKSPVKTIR

inhibition of PLK1 function (PLK1 [1]): did
IC50 (PLK1 [1]; [3]): 120 µM
IC50 (PLK1 [1]; [4]): > 200 µM
inhibition of CKII enzymatic activity (Human recombinant CKII): No significant inhibition
Compound: Nc1ncnc2c1ncn2[C@@H]1O[C@H](CO)[C@@H](O)[C@H]1S [2′-Thioadenosine]
mode of PLK1 inhibition with respect to ATP (PLK1 [2]): none of these compounds were classical competitive inhibitors

IC50 (PLK1 [1]; [5]): > 500 µM
Compound: Cc1ncc2ccccc2c1C#N [4-Cyano-3-methylisoquinoline]
inhibition of PLK1 (PLK1 [1]): none of these compounds caused any inhibition
IC50 (PKA): 0.03 µM

IC50 (PLK1 [1]; [6]): 4 µM
Compound: CNc1nc(C)c(-c2ccnc(Nc3ccc(O)cc3)n2)s1 [4-[4-(4-methyl-2-methylamino-thiazol-5-yl)-pyrimidin-2-ylamino]-phenol]

potency relative to 2′-thioadenosine on PLK1 (PLK1 [1]): about 3 fold
inhibition of PLK1 function (PLK1 [1]): did
IC50 (PLK1 [1]; [3]): 39 µM
IC50 (PLK1 [1]; [4]): > 200 µM
inhibition of CKII enzymatic activity (Human recombinant CKII): No significant inhibition
Compound: Nc1ncnc2c1ncn2[C@@H]1O[C@H](CS)[C@@H](O)[C@H]1O [5′-Thioadenosine, 5′-Deoxy-5′-thioadenosine]
mode of PLK1 inhibition with respect to ATP (PLK1 [2]; listed as 5-′thioadenosine): none of these compounds were classical competitive inhibitors
mode of PLK1 inhibition with respect to ATP (PLK1 [2]; listed as 5′-thioadenosine): dependent on ATP concentration but not competitive with ATP

inhibition of PLK1 function (PLK1 [1]): did not inhibit
IC50 (PLK1 [1]; [3]): > 200 µM
IC50 (PLK1 [1]; [4]): > 200 µM
inhibition of CKII enzymatic activity (Human recombinant CKII): No significant inhibition
Compound: Nc1ncnc2c1ncn2[C@@H]1O[C@H](CO)[C@@H](O)[C@H]1O [Adenosine]
mode of PLK1 inhibition with respect to ATP (PLK1 [2]): none of these compounds were classical competitive inhibitors

PLK1 inhibition, result in words (PLK1 [1]): no detectable inhibition
IC50 (PLK1 [1]; [5]): > 200 µM
Compound: O=C(N[C@@H]1CNCCC[C@H]1OC(=O)c1cc(O)c(C(=O)c2c(O)cccc2C(=O)O)c(O)c1)c1ccc(O)cc1 [Balanol]

IC50 (PLK1 [1]; [7]): > 100 µM
Compound: O=c1c(O)c(-c2ccccc2O)oc2cc(O)cc(O)c12 [Datescefin]

PLK1 inhibition, result in words (PLK1 [1]): inactive
Compound: O=c1c(O)c(-c2ccccc2O)oc2cc(O)cc(O)c12 [Datescetin]

IC50 (PLK1 [1]; [7]): > 100 µM
Compound: O=c1c(O)c(-c2ccccc2)oc2cc(O)cc(O)c12 [Galangin]

IC50 (PLK1 [1]; [5]): > 500 µM
Compound: Cl.NCCNS(=O)(=O)c1cccc2c(Cl)cccc12 [Inhibitor A3]
inhibition of PLK1 (PLK1 [1]): none of these compounds caused any inhibition
IC50 (PKA): 11 µM

Compound: O=S(=O)(NCCNC/C=C/c1ccc(Br)cc1)c1cccc2cnccc12 [Inhibitor H89]
inhibition of PLK1 (PLK1 [1]): none of these compounds caused any inhibition

Compound: NC(=O)CI [Iodoacetamide]
PLK1 inhibition, result in words (PLK1 [1]): to some extent
IC50 (PLK1 [1]; IC50 (μM) + DTT, in the presence of dithiothreitol (1 mM)): > 200 µM
IC50 (PLK1 [1]; IC50 (μM) − DTT, in the absence of dithiothreitol): 83 µM
inhibition of CKII enzymatic activity (Human recombinant CKII): No significant inhibition

IC50 (PLK1 [1]; [5]): > 500 µM
Compound: CCCCCCOC(=O)[C@]1(O)C[C@@H]2O[C@@]1(C)n1c3ccccc3c3c4c(c5c6ccccc6n2c5c31)C(=O)NC4 [KT5720]
inhibition of PLK1 (PLK1 [1]): none of these compounds caused any inhibition
IC50 (PKA): 0.056 µM

IC50 (PLK1 [1]; [7]): > 100 µM
Compound: O=c1c(O)c(-c2ccc(O)cc2)oc2cc(O)cc(O)c12 [Kaempferol]

IC50 (PLK1 [1]; [7]): > 100 µM
Compound: O=c1cc(-c2ccc(O)c(O)c2)oc2cc(O)cc(O)c12 [Luteolin]

Compound: O=c1c(O)c(-c2cc(O)c(O)c(O)c2)oc2cc(O)cc(O)c12 [Myricetin]
PLK1 inhibition, result in words (PLK1 [1]): lack of inhibition
IC50 (PLK1 [1]; [7]): > 100 µM
IC50 (PLK1 [1]; [6]): > 100 µM

Compound: CCN1C(=O)C=CC1=O [N-ethylmaleimide]
PLK1 inhibition, result in words (PLK1 [1]): to some extent
IC50 (PLK1 [1]; [3]): 55 µM
IC50 (PLK1 [1]; [4]): > 200 µM
inhibition of CKII enzymatic activity (Human recombinant CKII): No significant inhibition

Compound: C[CH2][Hg][S]c1ccccc1C(=O)[O-].[Na+] [Thimerosal]
PLK1 inhibition, result in words (PLK1 [1]): to some extent
IC50 (PLK1 [1]; [3]): 22 µM
IC50 (PLK1 [1]; [4]): > 200 µM
inhibition of CKII enzymatic activity (Human recombinant CKII): No significant inhibition
mode of PLK1 inhibition with respect to ATP (PLK1 [2]): none of these compounds were classical competitive inhibitors

Compound: COC[C@H]1OC(=O)c2coc3c2[C@@]1(C)C1=C(C3=O)[C@@H]2CCC(=O)[C@@]2(C)C[C@H]1OC(C)=O [Wortmannin]
PLK1 inhibition, result in words (PLK1 [1]): very potent inhibitor
IC50 (CDK2): > 10 µM
mode of PLK1 inhibition with respect to ATP (PLK1 [2]): totally independent of ATP; also recorded: completely ATP-independent

PLK1 inhibition, result in words (PLK1 [1]): inactivity
IC50 (PLK1 [1]; [7]): > 100 µM
Compound: O=c1c(-c2ccc(O)cc2)coc2cc(O)ccc12 [daidzein]

PLK1 inhibition, result in words (PLK1 [1]): inactivity
IC50 (PLK1 [1]; [7]): > 100 µM
Compound: O=c1c(O)c(-c2ccc(O)c(O)c2)oc2cc(O)ccc12 [fisetin]

PLK1 inhibition, result in words (PLK1 [1]): inactivity
Compound: O=c1c(O)c(-c2ccccc2)oc2cc(O)cc(O)c12 [gangolin]

PLK1 inhibition, result in words (PLK1 [1]): inactivity
IC50 (PLK1 [1]; [7]): > 100 µM
Compound: COc1ccc(-c2oc3cc(O)cc(O)c3c(=O)c2O)cc1 [kaempferide]

PLK1 inhibition, result in words (PLK1 [1]): lack of inhibition
Compound: O=c1c(O)c(-c2ccc(O)cc2)oc2cc(O)cc(O)c12 [kaepmpferol]

PLK1 inhibition, result in words (PLK1 [1]): the most potent in the flavonoid series
IC50 (PLK1 [1]; [7]): 12.6 ± 1.4 µM
IC50 (PLK1 [1]; [6]): 12 µM
Compound: O=c1c(O)c(-c2ccc(O)cc2O)oc2cc(O)cc(O)c12 [morin hydrate]

PLK1 inhibition, result in words (PLK1 [1]): weak inhibition
IC50 (PLK1 [1]; [7]): 60 µM
Compound: O=c1c(O)c(-c2cc(O)c(O)c(O)c2)oc2cc(O)ccc12 [robinetin]

PLK1 inhibition, result in words (PLK1 [1]): moderate inhibition
IC50 (PLK1 [1]; Table 12, read-out: Plk1 IC50): 5 µM
IC50 (PLK1 [1]; [5]): 10 µM
Compound: Purvalanol A
IC50 (PKA): > 100 µM
